Data reported in patent publication US10722484B2, “Methods of cancer treatment” (K-Gen, Inc., priority 2016, dated 2020).
Like-named read-outs stand apart in the source and are kept apart here.

Experiments:
[1] = test system: AGS; experiment: Proliferation assay (CellTiter Glo); format: cell-based; settings: 96 hours
Protocol: (§1) The dose range for most compounds was 4.6 nM-30 μM. The dose ranges for some compounds were adjusted downward to 0.46 nM-3 μM or 0.08 nM-0.5 μM or 0.03 nM-0.2 μM. […] The results are shown in Tables 3-6 for pancreatic cancer, lung cancer, colon/gastric cancer, and leukemia.

[2] = test system: H358; experiment: Proliferation assay (CellTiter Glo); format: cell-based; settings: HE58, 96 hours
Protocol: as §1

[3] = test system: SW620; experiment: Proliferation assay (CellTiter Glo); format: cell-based; settings: 96 hours
Protocol: as §1

[4] = test system: A549; experiment: Proliferation assay (CellTiter Glo); format: cell-based; settings: 96 hours
Protocol: as §1

[5] = test system: LS180; experiment: Proliferation assay (CellTiter Glo); format: cell-based; settings: 96 hours
Protocol: as §1

[6] = test system: HCT116; experiment: Proliferation assay (CellTiter Glo); format: cell-based; settings: 96 hours
Protocol: as §1

[7] = test system: H727; experiment: Proliferation assay (CellTiter Glo); format: cell-based; settings: 96 hours
Protocol: as §1

[8] = test system: KP-4; experiment: Proliferation assay (CellTiter Glo); format: cell-based; settings: 96 hours
Protocol: as §1

[9] = test system: Capan-1; experiment: Proliferation assay (CellTiter Glo); format: cell-based; settings: 96 hours
Protocol: as §1

[10] = test system: H441; experiment: Proliferation assay (CellTiter Glo); format: cell-based; settings: 96 hours
Protocol: as §1

[11] = test system: THP1; experiment: Proliferation assay (CellTiter Glo); format: cell-based, human; settings: 96 hours
Protocol: as §1

[12] = test system: HL60; experiment: Proliferation assay (CellTiter Glo); format: cell-based, human; settings: 96 hours
Protocol: as §1

[13] = test system: SW900; experiment: Proliferation assay (CellTiter Glo); format: cell-based; settings: SW900 (K-RAS: G12V); 96 hours
Protocol: as §1
(§2) Other cancer cell lines having wild-type K-RAS status and K-RAS mutation at G12 were also screened using the PKC activator compounds. […] K104 was tested in a range of 0.03 nM-0.2 μM. […] The dose ranges were adjusted downward to 0.46 nM-3 μM for K102 and 0.08 nM-0.5 μM for K103 for some cell lines. The results of the screening of cancer cells lines with wild-type K-RAS status and K-RAS mutations at the G12 positions are presented in Table 7.

[14] = test system: H1915; experiment: Proliferation assay (CellTiter Glo); format: cell-based; settings: H1915 (RAS WT); 96 hours
Protocol: as §1, §2

[15] = test system: HT29; experiment: Proliferation assay (CellTiter Glo); format: cell-based; settings: HT29 (RAS WT); 96 hours
Protocol: as §1, §2

[16] = test system: H838; experiment: Proliferation assay (CellTiter Glo); format: cell-based; settings: H838 (RAS WT); 96 hours
Protocol: as §1, §2

[17] = test system: Colo205; experiment: Proliferation assay (CellTiter Glo); format: cell-based; settings: Colo205 (RAS WT); 96 hours
Protocol: as §1, §2

[18] = test system: RPMI8226; experiment: Proliferation assay (CellTiter Glo); format: cell-based; settings: RPM18226; 96 hours
Protocol: as §1, §2

[19] = test system: BxPC-3; experiment: Proliferation assay (CellTiter Glo); format: cell-based; settings: BxPC-3 (RAS WT); 96 hours
Protocol: as §1, §2

[20] = test system: MiaPaCa-2; experiment: Proliferation assay (CellTiter Glo); format: cell-based; settings: 96 hours
[21] = test system: MiaPaCa-2; experiment: Combination viability/proliferation assays; format: cell-based
Protocol: (§3) A 96-well MacSynergy II format for combination test was also used. […] The analysis was done with the SQRT(Data) scale and the four parameter Hill curve was fitted using XLfit5.1 (the MacSynergy II Excel Spreadsheet) for the inhibition data. Synergy (positive number) or Antagonism (negative number) volumes were calculated. […] Three-dimensional MacSynergy II graphs were generated where positive values indicated synergism and negative values indicated antagonism.

[22] = test system: A549 lung cancer cell line; experiment: Combination viability/proliferation assays (384-well IC50 ratio, 96-well MacSynergy II); format: cell-based
Protocol: as §3

Structure (SMILES): CC(=O)OC12CC(C)C3(O)C(C=C(CO)CC4(O)C(O)C(C)=CC43)C1C2(C)C (centres unmarked) [Compound K101C]
- EC50 ([1]; AGS (gastric, K-RAS: G12D), absolute EC50, read-out: Ab EC50): > 30 µM
- Top Inhibition % ([1]; AGS, % of top inhibition): 25.3%
- EC50 ([1]; AGS, relative EC50, read-out: Re EC50): 11 µM
- Top Inhibition % ([2]; % of top inhibition): 44.0%
- EC50 ([2]; absolute EC50, read-out: Ab EC50): > 30 µM
- EC50 ([2]; relative EC50, read-out: Re EC50): 4.98 µM
- EC50 ([3]; SW620 (K-RAS: G12V), absolute EC50, read-out: Ab EC50): > 30 µM
- Top Inhibition % ([3]; SW620, % of top inhibition): 0.0%
- EC50 ([4]; A549 (K-RAS: G12S), absolute EC50, read-out: Ab EC50): 13 µM
- Top Inhibition % ([4]; A549, % of top inhibition): 70.3%
- EC50 ([4]; A549, relative EC50, read-out: Re EC50): 6.68 µM
- EC50 ([5]; LS180 (K-RAS: G12D), absolute EC50, read-out: Ab EC50): > 30 µM
- Top Inhibition % ([5]; LS180, % of top inhibition): 6.8%
- EC50 ([6]; HCT116 (K-RAS: G13D), absolute EC50, read-out: Ab EC50): > 30 µM
- Top Inhibition % ([6]; HCT116, % of top inhibition): 12.2%
- EC50 ([7]; H727 (K-RAS: G12V), absolute EC50, read-out: Ab EC50): > 30 µM
- Top Inhibition % ([7]; H727, % of top inhibition): 42.8%
- EC50 ([7]; H727, relative EC50, read-out: Re EC50): 3.61 µM
- EC50 ([8]; KP-4 (K-RAS: G12C), absolute EC50, read-out: Ab EC50): 11 µM
- Top Inhibition % ([8]; KP-4, % of top inhibition): 70.4%
- EC50 ([8]; KP-4, relative EC50, read-out: Re EC50): 6.77 µM
- EC50 ([9]; Capan-1 (K-RAS: G12V), absolute EC50, read-out: Ab EC50): > 30 µM
- Top Inhibition % ([9]; Capan-1, % of top inhibition): 35.7%
- EC50 ([9]; Capan-1, relative EC50, read-out: Re EC50): 5.4 µM
- EC50 ([10]; H441 (K-RAS: G12V), absolute EC50, read-out: Ab EC50): > 30 µM
- Top Inhibition % ([10]; H441, % of top inhibition): 37.0%
- EC50 ([10]; H441, relative EC50, read-out: Re EC50): 7.44 µM
- EC50 ([11]; THP1 (N-RAS: G12D), absolute EC50, read-out: Ab EC50): 16 µM
- Top Inhibition % ([11]; THP1, % of top inhibition): 51.4%
- EC50 ([11]; THP1, relative EC50, read-out: Re EC50): 8.11 µM
- EC50 ([12]; HL60 (N-RAS: Q61L), absolute EC50, read-out: Ab EC50): 17 µM
- Top Inhibition % ([12]; HL60, % of top inhibition): 63.9%
- EC50 ([12]; HL60, relative EC50, read-out: Re EC50): 13 µM
- Top Inhibition % [13]: 10.9%
- Top Inhibition % [14]: 28.9%
- Top Inhibition % [15]: 4.8%
- Top Inhibition % [16]: 20.2%
- Top Inhibition % [17]: 73.2%
- Top Inhibition % [18]: 22.72%
- Top Inhibition % [19]: 36.67%
- EC50 ([20]; MiaPaCa-2 (K-RAS: G12C), absolute EC50, read-out: Ab EC50): > 30 µM
- Top Inhibition % ([20]; MiaPaCa-2, % of top inhibition): 40.1%
- EC50 ([20]; MiaPaCa-2, relative EC50, read-out: Re EC50): 4.37 µM

Structure (SMILES): CS(=O)(=O)c1ccc(C(=O)Nc2ccc(Cl)c(-c3ccccn3)c2)c(Cl)c1 [Vismodegib]
- inhibition of proliferation by the agent alone ([21]; alone at 10 μM): did not inhibit
- effect in combination with K101A or K102 (synergy) ([21]; at 1 μM): not
- effect in combination with K101A or K102 ([21]; at 10 μM): synergy
- Combination in A549: K101A (synergism/antagonism) [22]: Synergism
- Combination in A549: K102 (synergism/antagonism) [22]: Synergism
- effect in combination with the PKC activator compounds in inhibiting the growth of A549 cells [22]: strong synergy
- inhibition of cell proliferation by the agent alone [22]: did not inhibit
